# Target: N-acetyl-5-methoxytryptamine receptors
# Test: relative affinity for the specific N-acetyl-5-methoxytryptamine receptors
# Assay type: binding
# Details: association constant; SE printed in a separate column
# Protocol: (§1) All the substances were evaluted for their relative affinity and were tested for biological activity by using classical tests.
row,Compound,Ka ± SE
1,COc1ccc2[nH]c(-c3ccccc3)c(CCNC(=O)C3CC3)c2c1 [Compound 4g],4.1e+09 L/mol

# System: N-acetyl-5-methoxytryptamine receptors
# Test: biological activity by classical tests (agonist/antagonist character)
# Details: not given
# Protocol: as §1
row,Compound,Activity
1,COc1ccc2[nH]c(-c3ccccc3)c(CCNC(C)=O)c2c1 [Compound 4d],Antagonist
2,COc1ccc2[nH]c(I)c(CCNC(=O)C3CC3)c2c1 [Compound 4i],Agonist
3,COc1ccc2[nH]c(C)c(CCNC(C)=O)c2c1 [Compound 4a],Agonist
4,COc1ccc2[nH]c(C3CCCCC3)c(CCNC(C)=O)c2c1 [Compound 4c],Partial antagonist
5,COc1ccc2[nH]c(Br)c(CCNC(=O)C3CC3)c2c1 [Compound 4h],Agonsit
6,"COc1ccc2[nH]cc(CCNC(C)=O)c2c1 [Melatonin, N-Acetyl-5-methoxytryptamine, reference compound]",Agonist
7,COc1ccc2[nH]c(I)c(CCNC(C)=O)c2c1 [Compound 4k],Agonist
8,COc1ccc2[nH]c(C)c(CCNC(=O)C3CC3)c2c1 [Compound 4e],Agonist
9,COc1cc2c(CCNC(C)=O)c(Br)[nH]c2cc1Br [Compound 4l],Agonist
10,COc1ccc2[nH]c(-c3ccccc3)c(CCNC(=O)C3CC3)c2c1 [Compound 4g],Partial antagonist
11,"COc1ccc2[nH]c(Br)c(CCNC(C)=O)c2c1 [Compound 4j, N-acetyl-2-bromo-5-methoxy tryptamine]",Agonist

# — patent EP0585206B1, “Tryptamines for treatment of circadian rhythm disorders” (I.F.L.O. S.a.s. di Giorgio e Aldo Laguzzi, priority 1992, dated 1994)
